Test results: patent US6599933B2, “Tocotrienol derivative, process for producing the same and γ-CEHC delivering agent” (Kenko Corporation, priority 2000, dated 2003)

Assays:
[1] = racemic γ-CEHC administered to SD rat intravenously; cited from earlier work
[2] = Hydrolyzability test in rat liver microsome solution; type: in vitro ADME
Procedure: (§1) d-α-tocotrienol N,N-dimethylaminoacetate hydrochloride (Example 5:hereinafter, d-α-T3DMA), d-α-tocotrienol N-methylaminoacetate hydrochloride (Example 2:hereinafter, d-α-T3MA), d-γ-tocotrienol N,N-dimethylaminoacetate hydrochloride (Example 6:hereinafter, d-γ-T3DMA), d-γ-tocotrienol N-methylaminoacetate hydrochloride (Example 4:hereinafter, d-γ-T3MA), or d-γ-tocotrienolaminoacetate hydrochloride (Example 3:hereinafter, d-γ-T3AA) were added to a solution of SD rat liver microsome and rat plasma in an isotonic phosphate buffer, and d-α-tocotrienol and d-γ-tocotrienol produced in the reaction solution at 37° C. with time were measured by high performance liquid chromatography (HPLC).
(§2) As Comparative Example, a hydrolysis test was performed on d-α-tocotrienolsuccinic acid ester (hereinafter, d-α-T3S) and d-γ-tocotrienolsuccinic acid ester (hereinafter, d-γ-T3S) similarly.
(§3) HPLC conditions: Column was CAPCELL PAK UG120, a mobile phase was methanol-acetonitrile (5:5 v/v), a rate was 0.7 ml/min, and detection was carried out by absorbance of 283 nm and fluorescent intensity (excitation 298 nm, fluorescent 325 nm).
(§4) Dynamic parameters of production of d-α-tocotrienol and d-γ-tocotrienol in a solution of rat liver microsome and rat plasma according to Micaelis-Menten model are shown in Tables 4 and 5.

[3] = Hydrolyzability test in rat plasma solution; type: in vitro ADME; settings: 37° C., production of tocotrienol, Michaelis-Menten model
Procedure: as §1, §2, §3, §4

Water-solubility test = settings: 0.250 mmol in 5 ml distilled water, stirred at 20° C. for 24 hours, HPLC
[4] = Animal Test Example 1: kinetics in rat after intravenous administration (plasma, liver, heart, kidney); design: species or system SD rat; settings: in vivo, 25 mg/kg
Procedure: 1) SD male rats (weighing 260-285 g) were used while a diet was changed to crystal sugar from 16 hours before drug administration. d-α-T3DMA (Example 5), d-γ-T3DMA (Example 6), d-α-tocotrienol (hereinafter, d-α-T3), or d-γ-tocotrienol (hereinafter, d-γ-T3) was administered into left femoral vein under slight anesthesia. A solution of d-α-T3DMA or d-γ-T3DMA to be administered was used by dissolving it in distilled water containing 10% propylene glycol, and filtering with membrane filter (0.22 μm). A solution of d-α-T3 and d-γ-T3 to be administered was used by dissolving it using a nonionic surfactant HCO-60. Administration amounts were set to be tocotrienol equivalent 25 mg/kg, respectively. 0.25, 0.5, 1, 2, 4, 8 and 24 hours after administration, blood was taken under ether anesthesia, and liver, heart and kidney were taken. Plasma was rapidly separated and taken. A 1.15% potassium chloride solution was added at a 3-fold amount of each organ weight was added thereto, which was homogenated. 0.7 ml of ethanol was added to 0.2 ml of each sample, the mixture was stirred for 2 minutes, centrifuged, and the supernatant was analyzed by the aforementioned HPLC.

[5] = Test Examples 2 and 3: S-γ-CEHC kinetics in plasma after intravenous administration to rat; type: in vivo, SD rat
Procedure: A SD male rat, 7 weeks old, was used. A solution of γ-T3DMA to be administered was prepared into a d-γ-tocotrienol equivalent 25 mg/ml aqueous solution. The solution was administered intravenously into left femoram vein under slight ether anesthesia, blood was taken from external jugular vein with an injector for tuberculin treated with heparin with time, and plasma was taken after centrifugation. Plasma was stored at −80° C. till HPLC measurement. A γ-CEHC level in plasma was measured by the HPLC method which can fractionally quantitate optical isomers S-γ-CEHC and R-γ-CEHC (Hattori A., Fukushima T., Imai K., Anal. Biochem., 281, 209-215 (2000)). […] R-γ-CEHC was not detected in plasma after administration and only S-γ-CEHC was detected therein. […] Here, a S-γ-CEHC level after administration of racemic γ-CEHC is a value at racemic γ-CEHC 1 mg/kg. […] S-γ-CEHC in plasma was rapidly elevated after administration of γ-T3DMA and reached Cmax 1 hour after administration. […] Mean Retention Time (MRT) of a γ-T3DMA administered group is 6.64 hr and is an about 7-fold value as compared with MRT 1.00 hr of a racemic γ-CEHC administered group. From the foregoing, it can be understood that γ-T3DMA can enhance the S-γ-CEHC level in the living body and, further, can maintain the S-γ-CEHC level continuously for longer period of time.
The pharmacokinetics parameter represents an average of four animals and standard deviation. A dose is γ-T3 equivalent 25 mg/kg. F(%) was obtained by the following equation: […]
a Obtained by the Following Equation [formula]
wherein AUCS-γ-CEHC,γ-T3DM^Plasma and AUCS-γ-CEHC,racemicγ-CEHC^Plasma means AUC of S-γ-CEHC after administration of γ-T3DMA and racemic γ-CEHC, respectively, and Dγ-T3DMA and Dracemic γ-CEHC means a dose of γ-T3DMA and racemic γ-CEHC, respectively.
b Obtained by the Following Equation [formula]
wherein AUCS-γ-CEHC,γ-TDMA^Plasma means AUC of S-γ-CEHC after administration of γ-TDMA, and Dγ-TDMA means a dose of γ-TDMA.
γ-CEHC kinetics in plasma was studied by administering an aqueous γ-TDMA solution into rat's vein according to the same test procedure as those of Test Example 2. The γ-CEHC in plasma was all S-γ-CEHC and R-γ-CEHC was not detected. […] A level in plasma was rapidly elevated after administration, reached Cmax after 1 hr, and a S-γ-CEHC level was elevated clearly. […] Thus, it was shown that a level of S-γ-CEHC in the living body is efficiently elevated. Mean Retention Time (MRT) of a γ-TDMA administered group was 8.19 hr and was about 8-fold value as compared to MRT 1.00 hr of a racemic γ-CEHC administered group.

[6] = liver microsome, 37° C., production of tocotrienol, Michaelis-Menten model
[7] = liver microsome, 37° C., production of tocotrienol, Michaelis-Menten model, read-out: Km

SMILES | Km [2] [µM] | Vmax/Km [2] [min⁻¹] | Vmax [2, 6] [M/min] | Km [3] [µM] | Vmax [3] [M/min] | also measured
Cc1c(O)cc2c(c1C)O[C@@](C)(CCC(=O)O)CC2 [R-γ-CEHC] |  |  |  |  |  | biological half-life in plasma [1]: about 1 hour
CC(C)=CCC/C(C)=C/CC/C(C)=C/CC[C@]1(C)CCc2c(C)c(OC(=O)CCC(=O)O)c(C)c(C)c2O1 [d-α-T3S, d-α-tocotrienolsuccinic acid ester, reference compound] | 30.3 | 0.001846 | 5.588e-08 | 506 | 4.946e-08 | 
CC(C)=CCC/C(C)=C/CC/C(C)=C/CC[C@]1(C)CCc2cc(O)c(C)c(C)c2O1 [d-γ-tocotrienol] |  |  |  |  |  | solubility in distilled water (Water-solubility test): below detection limit of HPLC
CC(C)=CCC/C(C)=C/CC/C(C)=C/CC[C@]1(C)CCc2c(C)c(OC(=O)CN(C)C)c(C)c(C)c2O1.Cl [d-α-T3DMA, d-α-tocotrienol N,N-dimethylaminoacetate hydrochloride] | 5970 | 0.02455 | 0.0001465 | 793 | 9.187e-08 | bioavailability of d-α-T3 in liver [4]: 130%
CC(C)=CCC/C(C)=C/CC/C(C)=C/CC[C@]1(C)CCc2cc(OC(=O)CN(C)C)c(C)c(C)c2O1.Cl [d-γ-T3DMA, d-γ-tocotrienol N,N-dimethylaminoacetate hydrochloride] |  |  | 0.000323 | 786 | 7.592e-06 | Km [2, 7]: 5580 µM; R-γ-CEHC in plasma after administration ([5]; intravenous, HPLC separating optical isomers): not detected; MRT as fold of MRT of racemic γ-CEHC administered group ([5]; intravenous, S-γ-CEHC in plasma): about 7 fold
Cc1c(OC(=O)CN(C)C)cc2c(c1C)O[C@](C)(CCC[C@H](C)CCC[C@H](C)CCCC(C)C)CC2.Cl [γ-TDMA, d-γ-tocopheryl N,N-dimethylaminoacetate hydrochloride] |  |  |  |  |  | MRT as fold of MRT of racemic γ-CEHC administered group ([5]; in vivo, iv): about 8 fold; R-γ-CEHC in plasma after administration ([5]; in vivo, iv): not detected
CC(C)=CCC/C(C)=C/CC/C(C)=C/CC[C@]1(C)CCc2cc(OC(=O)CCC(=O)O)c(C)c(C)c2O1 [d-γ-T3S, d-γ-tocotrienolsuccinic acid ester, reference compound] | 22.1 | 0.03244 | 7.161e-07 | 1050 | 1.945e-06 | 
CNCC(=O)Oc1c(C)c(C)c2c(c1C)CC[C@@](C)(CC/C=C(\C)CC/C=C(\C)CCC=C(C)C)O2.Cl [d-α-T3MA, d-α-tocotrienol N-methylaminoacetate hydrochloride] | 109 | 0.01111 | 1.878e-06 | 1550 | 5.808e-07 | 
CC(C)=CCC/C(C)=C/CC/C(C)=C/CC[C@]1(C)CCc2cc(OC(=O)CN)c(C)c(C)c2O1.Cl [d-γ-T3AA, d-γ-tocotrienol aminoacetate hydrochloride] |  |  | 7.716e-05 | 5510 | 3.594e-05 | Km [2, 7]: 1560 µM
Cc1c(O)cc2c(c1C)OC(C)(CCC(=O)O)CC2 (stereo not shown) [S-γ-CEHC] |  |  |  |  |  | biological half-life in plasma [1]: ≤ 2 minutes
CNCC(=O)Oc1cc2c(c(C)c1C)O[C@](C)(CC/C=C(\C)CC/C=C(\C)CCC=C(C)C)CC2.Cl [d-γ-T3MA, d-γ-tocotrienol N-methylaminoacetate hydrochloride] |  |  | 0.0001204 | 12700 | 5.178e-05 | Km [2, 7]: 2100 µM
